Assays:
[1] = biological target: T1, G1 to S Phase Transition 1 (GSPT1) (Homo sapiens, UniProt P15170); assay: GSPT1 degradation, HiBiT-tagged GSPT1 in 293T cells; assay type: cell-based; details: 6 hours, up to 10 WV
T1 construct: Endogenous expression of GSPT1 in 293T cells was determined by addition of N-terminal HiBiT tag; host or cells: 293T (CRISPR-Cas9 HiBiT knock-in)
Experimental: Endogenous expression of GSPT1 in 293T cells was determined by addition of N-terminal HiBiT tag to the 293T cell line (ATCC CRL-3216) using CRISPR-Cas9. Briefly, test compound was added to 384-well plates at a top concentration of 10 μM with 11 points, half log titration in duplicates. 293T cells expressing HiBiT-tagged GSPT1 were seeded into the 384-well plates in DMEM medium containing 10% FBS at a cell density of 6000 cells per well. Cells treated in the absence of the test compound were the negative control and wells containing media only were the positive control. Following compound treatment, cells were incubated at 37° C. with 5% CO2 for 6 hr. HiBiT signal was determined using Nano-Glo™ HiBiT Lytic Assay System (Promega, N3050) and luminescence was acquired on EnVision™ Multilabel Reader (PerkinElmer, Santa Clara, CA, USA). % GSPT1 remaining was determined by normalizing the signal with positive and negative controls on the same microtiter plate. Data in FIG. 8 are expressed as the mean±SD. Curve fit and IC50 determination was performed by 4 parametric regression analysis.

[2] = system: NCI-H1975 L858R-T790M NSCLC xenograft tumors; assay: NCI-H1975 NSCLC xenograft efficacy; assay type: in vivo, female BALB/c nude mice
Experimental: (§1) For the NCI-H1975 cells, the xenograft study was conducted in female BALB/c nude mice bearing NCI-H1975 NSCLC tumors. Female nude mice were inoculated subcutaneously in the right flank with 5×10^6 tumors cells in 0.1 mL of PBS. Tumor volume was measured twice weekly in two dimensions using calipers, and volume (mm^3) was calculated using the formula: V=0.5 a×b^2 where a and b are the long and short diameters of the tumor in mm, respectively.
Body weight and MTV were measured on a 2× weekly schedule. Statistical analysis was performed using a one-way ANOVA. Data are expressed as MTV±SEM.

[3] = biological target: T2, Phospho-EGFR Receptor Tyr1068 (Homo sapiens, UniProt P00533, L858R/T790M); assay: Phospho-EGFR in NCI-H1975 tumors after single oral dose (western blot); assay type: in vivo, female BALB/c nude mice
T2 construct: female BALB/c nude mice bearing NCI-H1975 NSCLC tumors; from tissue; host or cells: NCI-H1975 subcutaneous xenograft tumours from female BALB/c nude mice
Experimental: (§2) Compound 1 was administered as a single oral (PO) dose at 10, 25, or 50 mg/kg to female BALB/c nude mice with NCI-H1975 tumors. At 4h, 6h or 12h tumors were harvested and the protein expression of mutant EGFR-L858R and phospho-EGFR was measured by western blot.
as §1, with “A” for “For the NCI-H1975 cells, the”, “a×b2” for “a×b^2”, “respectively. […]” for “respectively.”
(§3) All agents were administered to mice bearing NCI-H1975 tumors on day 0 as a single oral (PO) dose. […] Protein concentration was quantified using a Pierce™ BCA Protein Assay Kit, samples were reduced, and equal protein amounts were then loaded onto a western blot gel for analysis. Tumors were analyzed for EGFR Receptor L858R Mutant Specific (CST, 3197) or Phospho-EGFR Receptor Tyr1068 (CST, 2234) expression. The intensity of individual bands was measured for data analysis using Image Studio software. Protein expression was quantitated in relation to the reference protein, alpha-tubulin, to control for total protein concentration. […]

mutant EGFR-L858R-T790M = biological target: T3, mutant EGFR-L858R-T790M (Homo sapiens, UniProt P00533, L858R/T790M); assay: Mutant EGFR protein in NCI-H1975 tumors after single oral dose (western blot); assay type: in vivo, female BALB/c nude mice
T3 construct: female BALB/c nude mice bearing NCI-H1975 NSCLC tumors; from tissue; host or cells: NCI-H1975 subcutaneous xenograft tumours from female BALB/c nude mice
Experimental: as §2
as §1, with “A” for “For the NCI-H1975 cells, the”, “a×b2” for “a×b^2”, “respectively. […]” for “respectively.”
as §3

[4] = after a single oral dose, NCI-H1975 tumors
[5] = single PO dose 10, 25 or 50 mg/kg, 4, 6 and 12 hours

T1 sequence (Q96SW2 whole entry partner): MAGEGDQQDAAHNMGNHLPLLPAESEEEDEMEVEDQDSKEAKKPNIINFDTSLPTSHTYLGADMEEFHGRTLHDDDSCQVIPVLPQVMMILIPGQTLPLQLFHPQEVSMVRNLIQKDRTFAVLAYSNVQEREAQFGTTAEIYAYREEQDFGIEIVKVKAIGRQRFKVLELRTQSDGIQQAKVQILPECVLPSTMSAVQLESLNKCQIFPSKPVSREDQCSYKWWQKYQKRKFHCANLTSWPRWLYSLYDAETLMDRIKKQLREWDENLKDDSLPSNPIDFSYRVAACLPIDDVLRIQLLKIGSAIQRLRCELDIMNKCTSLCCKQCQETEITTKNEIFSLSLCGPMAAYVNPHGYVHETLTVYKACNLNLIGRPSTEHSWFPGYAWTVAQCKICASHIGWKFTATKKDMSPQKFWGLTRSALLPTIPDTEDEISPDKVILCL
T1 sequence (Q16531 whole entry partner): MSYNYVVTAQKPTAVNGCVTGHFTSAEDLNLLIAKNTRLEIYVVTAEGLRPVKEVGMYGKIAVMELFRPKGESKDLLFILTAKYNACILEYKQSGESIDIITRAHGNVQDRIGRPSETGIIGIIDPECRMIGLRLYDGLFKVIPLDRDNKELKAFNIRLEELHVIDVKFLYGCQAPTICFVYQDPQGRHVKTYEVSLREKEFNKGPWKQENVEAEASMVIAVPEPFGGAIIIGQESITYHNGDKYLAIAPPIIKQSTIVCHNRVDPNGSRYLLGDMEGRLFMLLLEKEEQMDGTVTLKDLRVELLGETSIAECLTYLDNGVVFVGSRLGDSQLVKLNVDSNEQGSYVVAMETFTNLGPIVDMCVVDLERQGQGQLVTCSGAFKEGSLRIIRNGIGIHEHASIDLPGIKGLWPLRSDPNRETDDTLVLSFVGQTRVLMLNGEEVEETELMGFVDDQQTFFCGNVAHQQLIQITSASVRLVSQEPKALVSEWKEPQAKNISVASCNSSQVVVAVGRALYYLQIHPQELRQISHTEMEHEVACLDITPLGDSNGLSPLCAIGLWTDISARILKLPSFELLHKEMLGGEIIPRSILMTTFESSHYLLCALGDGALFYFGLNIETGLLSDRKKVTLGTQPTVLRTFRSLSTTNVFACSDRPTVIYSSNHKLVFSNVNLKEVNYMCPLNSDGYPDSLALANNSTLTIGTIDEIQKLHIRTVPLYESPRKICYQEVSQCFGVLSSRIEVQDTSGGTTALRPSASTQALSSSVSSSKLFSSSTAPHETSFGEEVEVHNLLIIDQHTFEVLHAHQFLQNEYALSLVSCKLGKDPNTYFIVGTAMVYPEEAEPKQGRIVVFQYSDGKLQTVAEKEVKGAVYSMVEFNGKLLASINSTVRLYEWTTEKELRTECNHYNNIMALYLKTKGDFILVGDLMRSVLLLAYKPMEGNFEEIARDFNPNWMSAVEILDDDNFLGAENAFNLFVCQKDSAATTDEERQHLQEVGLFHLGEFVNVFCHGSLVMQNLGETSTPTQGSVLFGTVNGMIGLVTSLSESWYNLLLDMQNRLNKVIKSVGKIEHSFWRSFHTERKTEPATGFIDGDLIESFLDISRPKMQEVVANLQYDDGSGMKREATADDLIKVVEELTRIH
T1 sequence (P15170 whole entry): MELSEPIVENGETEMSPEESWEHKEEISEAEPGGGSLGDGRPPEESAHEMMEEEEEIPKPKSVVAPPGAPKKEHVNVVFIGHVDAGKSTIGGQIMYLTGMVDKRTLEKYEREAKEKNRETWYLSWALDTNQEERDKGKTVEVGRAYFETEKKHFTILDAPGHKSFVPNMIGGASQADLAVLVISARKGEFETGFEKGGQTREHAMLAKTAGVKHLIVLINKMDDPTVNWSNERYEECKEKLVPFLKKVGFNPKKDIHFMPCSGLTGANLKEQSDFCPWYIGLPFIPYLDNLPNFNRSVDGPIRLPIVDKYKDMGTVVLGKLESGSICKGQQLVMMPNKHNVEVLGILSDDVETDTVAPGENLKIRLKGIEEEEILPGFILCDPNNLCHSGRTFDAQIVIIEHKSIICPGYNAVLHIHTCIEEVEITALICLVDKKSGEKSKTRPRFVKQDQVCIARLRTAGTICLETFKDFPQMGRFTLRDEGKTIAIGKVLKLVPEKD

O=C1CC[C@H](Nc2ccc(N3CCC(O)(CC(=O)N4CC5(C4)CN(c4ccc(-c6cc(F)c7c(c6)C(=O)N(C(C(=O)Nc6nccs6)c6ncn8c6CCC8)C7)cc4)C5)CC3)c(F)c2)C(=O)N1 (stereo partly drawn) [Compound 1, 2-(6,7-dihydro-5H-pyrrolo[1,2-c]imidazol-1-yl)-2-[6-[4-[2-[2-[1-[4-[[(3S)-2,6-dioxo-3-piperidyl]amino]-2-fluoro-phenyl]-4-hydroxy-4-piperidyl]acetyl]-2,6-diazaspiro[3.3]heptan-6-yl]phenyl]-4-fluoro-1-oxo-isoindolin-2-yl]-N-thiazol-2-yl-acetamide]
GSPT1 degradation (% GSPT1 remaining) [1]: no significant effect | efficacy on NCI-H1975 tumor volume ([2]; 20, 50 and 100 mg/kg/day PO BID, 14 days): reduced tumor volume | tumor regression ([2]; NCI-H1975 mouse xenograft model, oral): up to 90% | phospho-EGFR decrease in vivo [3, 4]: > 95% | phospho-EGFR protein expression in tumors [3, 5]: phospho-EGFR inhibition | mutant EGFR degraded in vivo (mutant EGFR-L858R-T790M; [4]): up to 85% | mutant EGFR-L858R protein expression in tumors (mutant EGFR-L858R-T790M; [5]): potent EGFR degradation
